According to US12448369B2 (Edgewise Therapeutics, Inc., priority 2023, dated 2025):
Marks after values point to notes of the source that are not given here.

Experiments:
[1] = tested on: Rabbit Psoas myofibrils (skeletal myosin ATPase); assay: Myofibril ATPase assay, rabbit psoas (skeletal) myofibrils; assay type: biochemical; details: rabbit psoas myofibrils
Procedure, shortened: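 Readout: A340 decline from NADH oxidation, PK/LDH-coupled to ADP release; kinetic reads over 75 min. Buffer: pCa (PIPES, CaCl2, EGTA), pH 7.0. Linear-regression slopes vs vehicle, 4PL fit; reported as concentration giving 75% (Y75) or 125% (Y125) of vehicle activity.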

[2] = tested on: Porcine atria myofibrils (atrial myosin ATPase); assay: Myofibril ATPase assay, porcine atria myofibrils; assay type: biochemical; details: porcine atria myofibrils
Procedure, shortened: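 Coupled PK-LDH readout, NADH loss at 340 nm, kinetic 75 min. Porcine atria myofibrils, pCa buffer (PIPES/CaCl2/EGTA, pH 7.0). Slopes (mAU/min) normalized to vehicle = 100%, 4-parameter fit; Y75 or Y125 reported.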

[3] = target: T1, Porcine ventricle myofibrils (ventricular myosin ATPase) (Sus scrofa, UniProt P79293); assay: Myofibril ATPase assay, porcine ventricle myofibrils; assay type: biochemical, porcine (Yucatan minipigs); details: porcine ventricle myofibrils
T1 construct: Myofibrils from porcine cardiac muscle was isolated from the left ventricle of Yucatan minipigs; tissue Exemplar Genetics; host or cells: left ventricle of Yucatan minipigs, myofibrils prepared in house
Procedure, shortened: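 Test compounds acted on myofibrils isolated from the left ventricle of Yucatan minipigs. ADP formation was coupled via pyruvate kinase/lactate dehydrogenase to NADH oxidation, monitored kinetically at 340 nm over 75 min. Rates relative to vehicle were fitted with a 4-parameter logistic model, reported as Y75 (25% inhibition) or Y125 (activation) concentrations.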

[4] = Y75 value (75% activity relative to no compound)
[5] = ‡ Y125 value, not a Y75 value (125% activity relative to no compound)

T1 sequence (P79293 whole entry): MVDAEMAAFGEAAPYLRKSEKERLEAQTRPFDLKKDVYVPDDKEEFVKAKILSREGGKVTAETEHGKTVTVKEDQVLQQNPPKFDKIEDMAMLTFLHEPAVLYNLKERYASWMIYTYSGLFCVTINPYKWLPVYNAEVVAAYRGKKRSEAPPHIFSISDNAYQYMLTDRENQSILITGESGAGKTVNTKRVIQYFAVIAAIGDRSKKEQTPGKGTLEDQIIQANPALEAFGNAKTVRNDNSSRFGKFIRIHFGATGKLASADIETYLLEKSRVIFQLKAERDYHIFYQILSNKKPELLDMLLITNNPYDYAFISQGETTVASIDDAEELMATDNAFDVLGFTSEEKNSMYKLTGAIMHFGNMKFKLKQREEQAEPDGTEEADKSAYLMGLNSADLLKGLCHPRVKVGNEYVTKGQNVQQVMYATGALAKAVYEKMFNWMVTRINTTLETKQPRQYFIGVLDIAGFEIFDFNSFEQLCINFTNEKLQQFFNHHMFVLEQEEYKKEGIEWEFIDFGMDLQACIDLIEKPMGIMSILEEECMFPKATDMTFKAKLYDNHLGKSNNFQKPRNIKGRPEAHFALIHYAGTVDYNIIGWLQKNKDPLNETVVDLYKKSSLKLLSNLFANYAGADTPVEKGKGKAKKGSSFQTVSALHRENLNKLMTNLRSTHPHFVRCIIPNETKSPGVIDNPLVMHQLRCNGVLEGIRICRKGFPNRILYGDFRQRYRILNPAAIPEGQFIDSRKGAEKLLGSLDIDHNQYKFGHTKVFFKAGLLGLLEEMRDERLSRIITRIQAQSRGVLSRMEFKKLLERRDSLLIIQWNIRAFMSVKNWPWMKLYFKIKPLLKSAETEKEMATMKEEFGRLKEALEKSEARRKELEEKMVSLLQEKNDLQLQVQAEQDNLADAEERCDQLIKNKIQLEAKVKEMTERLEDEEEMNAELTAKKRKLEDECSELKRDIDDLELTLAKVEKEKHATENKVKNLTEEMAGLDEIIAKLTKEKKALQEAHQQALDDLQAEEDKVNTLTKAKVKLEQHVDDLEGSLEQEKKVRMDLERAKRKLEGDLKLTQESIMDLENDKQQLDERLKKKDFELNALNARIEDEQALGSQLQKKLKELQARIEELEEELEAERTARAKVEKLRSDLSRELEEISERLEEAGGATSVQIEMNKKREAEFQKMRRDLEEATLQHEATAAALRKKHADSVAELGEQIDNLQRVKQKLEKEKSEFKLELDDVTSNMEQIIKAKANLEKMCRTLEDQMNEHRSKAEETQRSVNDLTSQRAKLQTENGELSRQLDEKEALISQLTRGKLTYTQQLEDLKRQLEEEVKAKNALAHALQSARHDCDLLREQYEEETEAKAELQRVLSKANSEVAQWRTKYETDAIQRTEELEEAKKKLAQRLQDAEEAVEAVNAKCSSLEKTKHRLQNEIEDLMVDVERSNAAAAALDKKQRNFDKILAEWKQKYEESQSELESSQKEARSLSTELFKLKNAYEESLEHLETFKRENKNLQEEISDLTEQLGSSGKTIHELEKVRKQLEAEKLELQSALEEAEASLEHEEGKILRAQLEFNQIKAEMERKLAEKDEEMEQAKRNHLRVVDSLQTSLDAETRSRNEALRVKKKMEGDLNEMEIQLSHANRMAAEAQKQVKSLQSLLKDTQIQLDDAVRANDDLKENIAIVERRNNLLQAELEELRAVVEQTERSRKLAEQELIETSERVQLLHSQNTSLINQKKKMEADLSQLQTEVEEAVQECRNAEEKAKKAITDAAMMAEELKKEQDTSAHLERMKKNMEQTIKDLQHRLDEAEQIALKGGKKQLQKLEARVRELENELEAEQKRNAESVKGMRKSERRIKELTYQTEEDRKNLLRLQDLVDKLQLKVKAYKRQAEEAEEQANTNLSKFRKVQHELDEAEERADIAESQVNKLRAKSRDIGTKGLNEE

Row | SMILES | Skeletal EC25 ([1]; Y75 value) [µM] | Atrial EC25 [2, 4] [µM] | Ventricular EC25 ([3]; Y75 value) [µM] | Skeletal EC25 ([1]; Y75 value (no ‡ mark)) [µM] | Atrial EC25 ([2]; Y75 value (no ‡ mark)) [µM] | Ventricular EC25 ([3]; Y75 value (no ‡ mark)) [µM] | other results
1 | Cc1nccc2[nH]c(=O)c(CC(=O)N[C@H](C)c3ncc(C#N)cn3)c(C)c12 [compound 482] | 100.00 | 28.27 | 63.17 |  |  |  | 
2 | C[C@H](NC(=O)Cc1c(C(F)(F)F)c2ccccc2[nH]c1=O)c1ccc(F)cc1F [compound 129] |  |  |  | 0.04 | 0.21 | 0.75 | 
3 | C[C@H](NC(=O)[C@@H](C)c1cc2c(F)cccc2[nH]c1=O)c1ccc(F)cc1F (single isomer, unassigned) [compound 102] |  |  |  | 3.90 | 100.00 | 100.00 | 
4 | Cc1c(CC(=O)N[C@H]2COc3cc(C#N)cc(F)c32)c(=O)[nH]c2ccc(F)c(C#N)c12 (single isomer, unassigned) [compound 60] |  |  |  | 0.27 | 0.05 | 0.62 | 
5 | C#Cc1nccc2[nH]c(=O)c(CC(=O)N[C@@H](C)c3ccc(F)cc3F)cc12 [compound 431] | 0.80 | 11.13 | 50.88 |  |  |  | 
6 | Cc1cc(C#N)ncc1[C@@H](C)NC(=O)Cc1c(C)c2c(C)c(F)ccc2[nH]c1=O [compound 1044] |  |  |  | 0.02 | 0.06 | 0.10 | 
7 | Cc1c(F)ccc2[nH]c(=O)c(CC(=O)N[C@@H](C)c3ccc(C#N)cc3F)c(O)c12 [compound 20] |  |  |  | 0.51 | 0.21 | 0.31 | 
8 | Cc1c(C(F)(F)C(=O)N[C@H](C)c2cccc(C#N)n2)c(=O)[nH]c2ccc(F)cc12 (single isomer, unassigned) [compound 2565] |  |  |  | 100.00 | 14.39 | 100.00 | 
9 | Cc1c(CC(=O)N[C@@H](CO)c2ccc(F)cc2F)c(=O)[nH]c2ccnc(C(F)(F)F)c12 [compound 232] | 0.02 | 0.47 | 2.74 |  |  |  | 
10 | Cc1c(C(F)(F)C(=O)N[C@H](C)c2ncc(C#N)cc2F)c(=O)[nH]c2cccc(C#N)c12 (single isomer, unassigned) [compound 2501] |  |  |  | 0.15 | 0.17 | 0.45 | 
11 | Cc1ccc2[nH]c(=O)c(CC(=O)N[C@@H](C)c3ccc(F)cc3F)c(C)c2n1 [compound 420] | 0.19 | 0.11 | 2.34 |  |  |  | 
12 | C[C@H](NC(=O)[C@@H](C)c1cc2c(C#N)nccc2[nH]c1=O)c1ccc(F)cc1F (single isomer, unassigned) [compound 361] | 0.03 | 1.29 | 3.68 |  |  |  | 
13 | Cc1c(CC(=O)N[C@@H](C)c2ccc(C#N)cn2)c(=O)[nH]c2cc(F)ccc12 [compound 1073] |  |  |  | 100.00 | 53.69 | 89.23 | 
14 | C[C@H](NC(=O)C(F)(F)c1cc2cc(F)ccc2[nH]c1=O)c1nccc(C#N)n1 (single isomer, unassigned) [compound 2560] |  |  |  |  | 100.00 | 100.00 | Skeletal EC25 [1, 5]: 61.98‡ μM
15 | C[C@@H](NC(=O)Cc1c(C(F)(F)F)c2c(C3CC3)nccc2[nH]c1=O)c1ncc(C#N)cn1 (single isomer, unassigned) [compound 3001] | 4.13 | 1.25 | 17.65 |  |  |  | 
16 | Cc1c(CC(=O)N[C@H](C)c2ccc(F)cc2F)c(=O)[nH]c2ccnc(C(F)(F)F)c12 [compound 270] | 100.00 | 100.00 | 100.00 |  |  |  | 
17 | CC(NC(=O)C1(c2cc3c(F)c(F)ccc3[nH]c2=O)CC1)c1cccc(C#N)n1 (single isomer, unassigned) [Compound 2570] |  |  |  |  |  |  | Skeletal EC25 [1, 5]: 26.03‡ μM; Atrial EC25 [2, 5]: 100.00‡ μM; Ventricular EC25 [3, 5]: 63.85‡ μM
18 | Cc1nccc2[nH]c(=O)c(CC(=O)N[C@@H]3CCc4cc(C#N)cc(F)c43)c(C)c12 (single isomer, unassigned) [compound 197] | 4.23 | 2.80 | 49.43 |  |  |  | 
19 | Cc1nc(C#N)cnc1[C@H](C)NC(=O)Cc1c(C)c2c(C#N)c(F)ccc2[nH]c1=O (single isomer, unassigned) [compound 2] |  |  |  | 0.02 | 0.09 | 0.08 | 

Row | SMILES | Skeletal EC25 ([1]; Y75 value) [µM] | Atrial EC25 [2, 4] [µM] | Ventricular EC25 ([3]; Y75 value) [µM] | Skeletal EC25 ([1]; Y75 value (no ‡ mark)) [µM] | Atrial EC25 ([2]; Y75 value (no ‡ mark)) [µM] | Ventricular EC25 ([3]; Y75 value (no ‡ mark)) [µM] | other results
20 | Cc1c(CC(=O)N[C@H](C)c2ncc(C#N)cn2)c(=O)[nH]c2cccc(C#N)c12 (single isomer, unassigned) [compound 2069] |  |  |  | 0.49 | 0.04 | 2.76 | 
21 | Cc1c(CC(=O)N[C@H](C)c2ccc(C#N)cc2F)c(=O)[nH]c2ccnc(C#N)c12 (single isomer, unassigned) [compound 282] | 0.35 | 1.55 | 1.16 |  |  |  | 
22 | Cc1c(C(F)(F)C(=O)N[C@H](C)c2ncc(C#N)cn2)c(=O)[nH]c2ccc(F)c(C#N)c12 (single isomer, unassigned) [compound 2521] |  |  |  | 0.41 | 0.32 | 1.83 | 
23 | Cc1c(CC(=O)N[C@H](C)c2cnc(C#N)nc2)c(=O)[nH]c2ccc(C(F)(F)F)nc12 [compound 457] | 100.00 | 30.66 | 100.00 |  |  |  | 
24 | Cc1c(CC(=O)N[C@@H](C)c2ccc(F)cc2F)c(=O)[nH]c2ccc(Br)nc12 [compound 357] | 0.06 | 0.06 | 0.31 |  |  |  | 
25 | Cc1nccc2[nH]c(=O)c(CC(=O)N[C@H](C)c3ccccn3)c(C)c12 (single isomer, unassigned) [compound 324] | 100.00 | 100.00 | 100.00 |  |  |  | 
26 | Cc1c(F)ccc2[nH]c(=O)c(C(F)(F)C(=O)N[C@@H](C)c3ncc(C#N)cn3)c(C)c12 (single isomer, unassigned) [compound 4832] |  |  |  | 0.17 | 0.12 | 0.58 | 
27 | Cc1c(C(F)(F)C(=O)N[C@H]2CCc3cc(C#N)cnc32)c(=O)[nH]c2ccc(F)cc12 (single isomer, unassigned) [compound 2516] |  |  |  | 0.67 | 0.79 | 100.00 | 
28 | Cc1c(CC(=O)N[C@@H](C)c2ccc(F)cc2F)c(=O)[nH]c2ccnc(OC3CC3)c12 [compound 386] | 0.03 | 0.12 | 1.51 |  |  |  | 
29 | Cc1c(CC(=O)N[C@H](C)c2ncc(C#N)cc2F)c(=O)[nH]c2cccc(F)c12 [compound 51] |  |  |  | 0.06 | 0.23 | 0.40 | 
30 | C[C@H](NC(=O)Cc1cc2cc(F)c(F)cc2[nH]c1=O)c1cnc(C#N)nc1 [compound 1075] |  |  |  | 8.39 | 16.51 | 15.41 | 
31 | C[C@@H](NC(=O)Cc1cc2c(C#N)nccc2[nH]c1=O)c1ccc(F)cn1 [compound 474] | 15.42 | 100.00 | 100.00 |  |  |  | 
32 | Cc1c(F)ccc2[nH]c(=O)c(CC(=O)N[C@@H](C)c3ncc(C#N)cc3F)c(C#N)c12 [compound 1150] |  |  |  | 0.04 | 0.05 | 0.05 | 
33 | Cc1c(CC(=O)N[C@@H](CO)c2ncc(F)cc2F)c(=O)[nH]c2ccnc(C(F)(F)F)c12 [compound 264] | 0.57 | 0.29 | 2.73 |  |  |  | 
34 | C[C@@H](NC(=O)C1(c2cc3c(F)c(F)ccc3[nH]c2=O)CC1)c1ccc(C#N)cn1 (single isomer, unassigned) [compound 4809] |  |  |  | 1.34 | 3.07 | 31.20 | 
35 | Cc1cc([C@@H](C)NC(=O)Cc2c(O)c3c(C)c(F)ccc3[nH]c2=O)ncc1F [compound 1116] |  |  |  | 100.00 | 100.00 | 100.00 | 
36 | Cc1c(CC(=O)N[C@H](C)c2ccc(C#N)cn2)c(=O)[nH]c2ccncc12 [compound 466] | 100.00 | 100.00 | 100.00 |  |  |  | 
37 | C[C@@H](NC(=O)Cc1c(C(F)(F)F)c2c(C3CC3)nccc2[nH]c1=O)c1ccc(C#N)nn1 (single isomer, unassigned) [compound 3003] |  |  | 100.00 |  |  |  | Skeletal EC25 (Y125 value, marked ‡) ([1]; Y125 value, not a Y75 value): 94.25‡ μM; Atrial EC25 (Y125 value, marked ‡) ([2]; Y125 value (125% activity), not a Y75 value): 92.51‡ μM
